What follows are compounds tested on velvetleaf (assay: Test Example 2: soil surface treatment, upland pot test). Conditions: active ingredient 1000 g/ha, observed 20th to 28th day.
Assay type: in vivo, Abutilon theophrasti MEDIC.
How it was run: (§1)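 Visual growth-control ratings, from 0 (like the non-treated plot) to 100 (total kill), were made between days 20 and 28 after a soil-surface spray. The compound, formulated as wettable powder or emulsifiable concentrate and diluted at 1,500 L/ha, went on one day post-sowing in upland-soil pots of 1/170,000 ha.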

| SMILES | Growth controlling degree (%) Velvetleaf [%] |
| --- | --- |
| CC(C)C(c1cnccc1C(F)(F)F)N(C)C(=O)Cc1ccc(I)cc1 (stereo not shown) [I-2] | 0 |

What follows are compounds tested on soybean in the same assay as above. Conditions: active ingredient 1000 g/ha, observed 20th to 28th day.
Assay type: in vivo, Glycine max Merr.
How it was run: as §1

| SMILES | Growth controlling degree (%) Soyabean [%] |
| --- | --- |
| CC(C)C(c1cnccc1C(F)(F)F)N(C)C(=O)Cc1ccc(I)cc1 (stereo not shown) [I-2] | 0 |

What follows are compounds tested on rice in the same assay as above. Conditions: active ingredient 1000 g/ha, observed 20th to 28th day.
Assay type: in vivo, Oryza sativa L.
How it was run: as §1

| SMILES | Growth controlling degree (%) Rice [%] |
| --- | --- |
| CC(C)C(c1cnccc1C(F)(F)F)N(C)C(=O)Cc1ccc(I)cc1 (stereo not shown) [I-2] | 0 |

These compounds were tested on green foxtail in the same assay as above. Conditions: active ingredient 1000 g/ha, observed 20th to 28th day.
Assay type: in vivo, Setaria viridis L.
How it was run: as §1

| SMILES | Growth controlling degree (%) Green foxtail [%] |
| --- | --- |
| CC(C)C(c1cnccc1C(F)(F)F)N(C)C(=O)Cc1ccc(I)cc1 (stereo not shown) [I-2] | 80 |

Each compound was assayed on wheat in the same assay as above. Conditions: active ingredient 1000 g/ha, observed 20th to 28th day.
Assay type: in vivo, Triticum spp.
How it was run: as §1

| SMILES | Growth controlling degree (%) wheat [%] |
| --- | --- |
| CC(C)C(c1cnccc1C(F)(F)F)N(C)C(=O)Cc1ccc(I)cc1 (stereo not shown) [I-2] | 0 |

These compounds were tested on velvetleaf (assay: Test Example 1: foliage treatment, upland pot test). Conditions: active ingredient 1000 g/ha, observed 18th to 23rd day, 0 = non-treated, 100 = complete kill.
Assay type: in vivo, Abutilon theophrasti MEDIC.

| SMILES | Growth controlling degree (%) Velvetleaf [%] |
| --- | --- |
| CC(C)C(c1cnccc1C(F)(F)F)N(C)C(=O)Cc1ccc(I)cc1 (stereo not shown) [I-2] | 90 |

Each compound was assayed on corn (assay: Test Example 1: foliage treatment, upland pot test). Conditions: crop, active ingredient 1000 g/ha, observed 18th to 23rd day, 0 = non-treated, 100 = complete kill.
Assay type: in vivo, Zea mays L.
How it was run: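 Corn seeds were sown in upland field soil held in a 1/170,000 ha pot and grown to the 2.1 to 3.2 leaf stage. A wettable powder or emulsifiable concentrate of the test compound was diluted with water at 500 L/ha, given 0.1% (v/v) agricultural spreader, and sprayed onto the foliage with a small sprayer. Growth controlling degree (%) was scored visually 18th to 23rd days later, from 0 (non-treated) to 100 (complete kill).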

| SMILES | Growth controlling degree (%) Corn [%] |
| --- | --- |
| CC(C)C(c1cnccc1C(F)(F)F)N(C)C(=O)Cc1ccc(I)cc1 (stereo not shown) [I-2] | 20 |

These compounds were tested on redroot pigweed (assay: Test Example 2: soil surface treatment, upland pot test). Conditions: active ingredient 1000 g/ha, observed 20th to 28th day.
Assay type: in vivo, Amaranthus retroflexus L.
How it was run: as §1

| SMILES | Growth controlling degree (%) Redroot pigweed [%] |
| --- | --- |
| CC(C)C(c1cnccc1C(F)(F)F)N(C)C(=O)Cc1ccc(I)cc1 (stereo not shown) [I-2] | 70 |

What follows are compounds tested on tall morningglory (assay: Test Example 1: foliage treatment, upland pot test). Conditions: active ingredient 1000 g/ha, observed 18th to 23rd day, 0 = non-treated, 100 = complete kill.
Assay type: in vivo, Ipomoea purpurea L.
Description: Upland field soil was put into a 1/170,000 ha pot, and seed of various plants were sown. Then, when the plants reached predetermined leaf stages ((1) barnyardgrass: 1.3 to 2.8 leaf stages, (2) crabgrass: 1.0 to 2.8 leaf stages, (3) green foxtail: 1.3 to 2.6 leaf stages, (4) redroot pigweed: 0.1 to 1.2 leaf stages, (5) prickly sida: 0.1 to 1.2 leaf stages, (6) velvetleaf: 0.1 to 1.2 leaf stages, (7) tall morningglory: 0.1 to 1.5 leaf stages, (8) rice: 1.2 to 2.6 leaf stages, (9) wheat: 1.3 to 2.4 leaf stages, (10) corn, 2.1 to 3.2 leaf stages, (11) soybean: 0.1 to 0.4 leaf stage), a wettable powder or emulsifiable concentrate having the compound of the present invention formulated in accordance with a usual formulation method, was weighed so that the active ingredient would be a predetermined amount, and diluted with water in an amount of 500 L/ha. To the diluted solution, 0.1% (v/v) of agricultural spreader was added. The herbicide thus adjusted was applied by a small size sprayer for foliage treatment. On the 18th to 23rd days after the application of the herbicide, the growth of the respective plants was visually observed, and the herbicidal effects were evaluated by the growth controlling degrees (%) ranging from 0 (equivalent to the non-treated plot) to 100 (complete kill), whereby the results shown in Table 3, were obtained.

| SMILES | Growth controlling degree (%) Tall morningglory [%] |
| --- | --- |
| CC(C)C(c1cnccc1C(F)(F)F)N(C)C(=O)Cc1ccc(I)cc1 (stereo not shown) [I-2] | 90 |

These compounds were tested on japanese ribbon wapato (assay: Test Example 3: paddy pot test, application under submerged conditions). Conditions: active ingredient 250 g/ha; submerged application at primary leaf stage; visually observed 14 days after application; 0 = non-treated, 100 = complete kill.
Assay type: in vivo, Sagittaria pygniaea
How it was run: (§2)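 Seeds were sown in flooded paddy soil (0.5–1 cm water), wapato tubers were planted 1–2 days later, and water was then held at 3–4 cm. Diluted wettable powder or emulsifiable concentrate was pipetted into the water at the 0.5 leaf or primary leaf stage. Growth control was visually scored at 14 days (0–100%).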

| SMILES | Growth controlling degree (%) Japanese ribbon wapato [%] |
| --- | --- |
| CC(C)C(c1cnccc1C(F)(F)F)N(C)C(=O)Cc1ccc(I)cc1 (stereo not shown) [I-2] | 50 |

What follows are compounds tested on prickly sida (assay: Test Example 2: soil surface treatment, upland pot test). Conditions: active ingredient 1000 g/ha, observed 20th to 28th day.
Assay type: in vivo, Sida spinosa L.
How it was run: as §1

| SMILES | Growth controlling degree (%) Prickly sida [%] |
| --- | --- |
| CC(C)C(c1cnccc1C(F)(F)F)N(C)C(=O)Cc1ccc(I)cc1 (stereo not shown) [I-2] | 70 |

What follows are compounds tested on corn in the same assay as above. Conditions: active ingredient 1000 g/ha, observed 20th to 28th day.
Assay type: in vivo, Zea mays L.
How it was run: as §1

| SMILES | Growth controlling degree (%) Corn [%] |
| --- | --- |
| CC(C)C(c1cnccc1C(F)(F)F)N(C)C(=O)Cc1ccc(I)cc1 (stereo not shown) [I-2] | 0 |

Each compound was assayed on crabgrass in the same assay as above. Conditions: active ingredient 1000 g/ha, observed 20th to 28th day.
Assay type: in vivo, Digitaria sanguinalis L.
How it was run: as §1

| SMILES | Growth controlling degree (%) Crabgrass [%] |
| --- | --- |
| CC(C)C(c1cnccc1C(F)(F)F)N(C)C(=O)Cc1ccc(I)cc1 (stereo not shown) [I-2] | 90 |

The compounds below were run on soybean (assay: Test Example 1: foliage treatment, upland pot test). Conditions: crop, active ingredient 1000 g/ha, observed 18th to 23rd day, 0 = non-treated, 100 = complete kill.
Assay type: in vivo, Glycine max Merr.
How it was run: (§3)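 Pots of upland field soil were sown and sprayed post-emergence at soybean 0.1–0.4, wheat 1.3–2.4, rice 1.2–2.6 and barnyardgrass 1.3–2.8 leaf stages. Formulations were diluted in water at 500 L/ha with 0.1% (v/v) spreader. Growth control (0 = untreated, 100 = complete kill) was judged by eye 18–23 days later.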

| SMILES | Growth controlling degree (%) Soybean [%] |
| --- | --- |
| CC(C)C(c1cnccc1C(F)(F)F)N(C)C(=O)Cc1ccc(I)cc1 (stereo not shown) [I-2] | 90 |

The compounds below were run on barnyardgrass (assay: Test Example 3: paddy pot test, application under submerged conditions). Conditions: active ingredient 250 g/ha; submerged application at 0.5 leaf stage; visually observed 14 days after application; 0 = non-treated, 100 = complete kill.
Assay type: in vivo, Echinochloa crus-galli L.
How it was run: as §2

| SMILES | Growth controlling degree (%) Barnyardgrass [%] |
| --- | --- |
| CC(C)C(c1cnccc1C(F)(F)F)N(C)C(=O)Cc1ccc(I)cc1 (stereo not shown) [I-2] | 100 |

The compounds below were run on barnyardgrass (assay: Test Example 1: foliage treatment, upland pot test). Conditions: active ingredient 1000 g/ha, observed 18th to 23rd day, 0 = non-treated, 100 = complete kill.
Assay type: in vivo, Echinochloa crus-galli L.
How it was run: as §3

| SMILES | Growth controlling degree (%) Barnyardgrass [%] |
| --- | --- |
| CC(C)C(c1cnccc1C(F)(F)F)N(C)C(=O)Cc1ccc(I)cc1 (stereo not shown) [I-2] | 90 |

What follows are compounds tested on crabgrass (assay: Test Example 1: foliage treatment, upland pot test). Conditions: active ingredient 1000 g/ha, observed 18th to 23rd day, 0 = non-treated, 100 = complete kill.
Assay type: in vivo, Digitaria sanguinalis L.

| SMILES | Growth controlling degree (%) Crabgrass [%] |
| --- | --- |
| CC(C)C(c1cnccc1C(F)(F)F)N(C)C(=O)Cc1ccc(I)cc1 (stereo not shown) [I-2] | 90 |

What follows are compounds tested on rice (assay: Test Example 1: foliage treatment, upland pot test). Conditions: crop, active ingredient 1000 g/ha, observed 18th to 23rd day, 0 = non-treated, 100 = complete kill.
Assay type: in vivo, Oryza sativa L.
How it was run: as §3

| SMILES | Growth controlling degree (%) Rice [%] |
| --- | --- |
| CC(C)C(c1cnccc1C(F)(F)F)N(C)C(=O)Cc1ccc(I)cc1 (stereo not shown) [I-2] | 20 |

These compounds were tested on barnyardgrass (assay: Test Example 2: soil surface treatment, upland pot test). Conditions: active ingredient 1000 g/ha, observed 20th to 28th day, 0 = non-treated, 100 = complete kill.
Assay type: in vivo, Echinochloa crus-galli L.
How it was run: as §1

| SMILES | Growth controlling degree (%) Barnyardgrass [%] |
| --- | --- |
| CC(C)C(c1cnccc1C(F)(F)F)N(C)C(=O)Cc1ccc(I)cc1 (stereo not shown) [I-2] | 80 |

What follows are compounds tested on prickly sida (assay: Test Example 1: foliage treatment, upland pot test). Conditions: active ingredient 1000 g/ha, observed 18th to 23rd day, 0 = non-treated, 100 = complete kill.
Assay type: in vivo, Sida spinosa L.

| SMILES | Growth controlling degree (%) Prickly sida [%] |
| --- | --- |
| CC(C)C(c1cnccc1C(F)(F)F)N(C)C(=O)Cc1ccc(I)cc1 (stereo not shown) [I-2] | 90 |

The compounds below were run on wheat (assay: Test Example 1: foliage treatment, upland pot test). Conditions: crop, active ingredient 1000 g/ha, observed 18th to 23rd day, 0 = non-treated, 100 = complete kill.
Assay type: in vivo, Triticum spp.
How it was run: as §3

| SMILES | Growth controlling degree (%) wheat [%] |
| --- | --- |
| CC(C)C(c1cnccc1C(F)(F)F)N(C)C(=O)Cc1ccc(I)cc1 (stereo not shown) [I-2] | 20 |

What follows are compounds tested on japanese bulrush (assay: Test Example 3: paddy pot test, application under submerged conditions). Conditions: active ingredient 250 g/ha; submerged application at 0.5 leaf stage; visually observed 14 days after application; 0 = non-treated, 100 = complete kill.
Assay type: in vivo, Scirpus juncoides
How it was run: as §2

| SMILES | Growth controlling degree (%) Japanese bulrush [%] |
| --- | --- |
| CC(C)C(c1cnccc1C(F)(F)F)N(C)C(=O)Cc1ccc(I)cc1 (stereo not shown) [I-2] | 90 |

What follows are compounds tested on rice (var. Nihonbare) (assay: Test Example 3: paddy pot test, transplanted rice). Conditions: active ingredient 250 g/ha, applied 4th day after transplantation, visually observed 21st day after application, 0 = non-treated, 100 = complete kill.
Assay type: in vivo, Oryza sativa L.
How it was run: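 Rice (2-leaf stage) was transplanted 3 cm deep into puddled, leveled paddy soil under 3–4 cm flooding. On day 4 after transplanting, diluted wettable powder or emulsifiable concentrate was pipetted onto the water at a predetermined active-ingredient dose. Growth control (0 = untreated, 100 = complete kill) was scored visually 21 days later.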

| SMILES | Growth controlling degree (%) Rice [%] |
| --- | --- |
| CC(C)C(c1cnccc1C(F)(F)F)N(C)C(=O)Cc1ccc(I)cc1 (stereo not shown) [I-2] | 20 |

What follows are compounds tested on redroot pigweed (assay: Test Example 1: foliage treatment, upland pot test). Conditions: active ingredient 1000 g/ha, observed 18th to 23rd day, 0 = non-treated, 100 = complete kill.
Assay type: in vivo, Amaranthus retroflexus L.

| SMILES | Growth controlling degree (%) Redroot pigweed [%] |
| --- | --- |
| CC(C)C(c1cnccc1C(F)(F)F)N(C)C(=O)Cc1ccc(I)cc1 (stereo not shown) [I-2] | 70 |

What follows are compounds tested on green foxtail (assay: Test Example 1: foliage treatment, upland pot test). Conditions: active ingredient 1000 g/ha, observed 18th to 23rd day, 0 = non-treated, 100 = complete kill.
Assay type: in vivo, Setaria viridis L.

| SMILES | Growth controlling degree (%) Green foxtail [%] |
| --- | --- |
| CC(C)C(c1cnccc1C(F)(F)F)N(C)C(=O)Cc1ccc(I)cc1 (stereo not shown) [I-2] | 70 |

— patent US20050239656A1, “Pyridine compounds or salts thereof and herbicides containing the same” (priority 2002, published 2005)
